# Data taken from publication PMC6325200, “Effects of Microplate Type and Broth Additives on Microdilution MIC Susceptibility Assays” (Antimicrobial Agents and Chemotherapy, 2018).
# How the values were obtained:
# E. coli ATCC 25922 = assay: microbe, parasite or virus in culture; details: n = 2
# Protocol: A positive control of a row of just the bacteria and a negative control of only the medium were included for every plate tested.
# The compounds along with standard antibiotics were serially diluted 2-fold across the 96-well plates. […] A sample of each culture was then diluted 40-fold in fresh MH broth (in presence and absence of Tween) and incubated at 37°C for 2 to 3 h.
# For experiments in the presence of surfactant, 2% beractant (25 mg/ml) was added to the mid-log-phase cultures and mixed gently and added to all the 96-well plates. For experiments in the presence of serum, a mixture of 50% of human serum along with 50% MHB was prepared and used throughout the experiment.
# A. baumannii ATCC 19606 = assay: microbe, parasite or virus in culture; details: Acinetobacter baumannii, n = 2
# How it was run: (§1)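 First, a sample of each culture was diluted 40-fold in fresh Mueller-Hinton broth containing or lacking Tween. Next, this was incubated 2 to 3 h at 37°C. Compounds, alongside comparator antibiotics, were tested as 2-fold serial dilutions on 96-well plates.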
# K. pneumoniae ATCC 13883 = assay: microbe, parasite or virus in culture; details: Klebsiella pneumoniae, n = 2
# How it was run: as §1
# P. aeruginosa ATCC 10145 = assay: microbe, parasite or virus in culture; details: Pseudomonas aeruginosa, n = 2
# How it was run: as §1
# E. coli = details: literature value; cited from earlier work
compound,measurement,setting,value
"CC1(C)S[C@@H]2[C@H](NC(=O)Cc3ccccc3)C(=O)N2[C@H]1C(=O)O [Penicillin G, penicillin G]",MIC,"E. coli ATCC 25922; Corning PS plate, MHB −T80, no additive",32 to 64 µg/mL
same,MIC,"E. coli ATCC 25922; Escherichia coli, ATCC25922, 24 h, Corning NBS, MH + 2% LHB, 2% LS",32 to 64 µg/mL
same,MIC,"E. coli ATCC 25922; Escherichia coli, ATCC25922, 24 h, Corning NBS, MH + 2% LHB, 50% HS",32 to 64 µg/mL
same,MIC,"E. coli ATCC 25922; Escherichia coli, ATCC25922, 24 h, Corning NBS, MH + 2% LHB, no additive",32 to 64 µg/mL
same,MIC,"E. coli ATCC 25922; Escherichia coli, ATCC25922, 24 h, Corning NBS, MH + T80, 2% LS",32 µg/mL
same,MIC,"E. coli ATCC 25922; Escherichia coli, ATCC25922, 24 h, Corning NBS, MH + T80, 50% HS",32 to 64 µg/mL
same,MIC,"E. coli ATCC 25922; Escherichia coli, ATCC25922, 24 h, Corning PS, MH + 2% LHB, 2% LS",32 to 64 µg/mL
same,MIC,"E. coli ATCC 25922; Escherichia coli, ATCC25922, 24 h, Corning PS, MH + 2% LHB, no additive",64 µg/mL
same,MIC,"E. coli ATCC 25922; Escherichia coli, ATCC25922, 24 h, Corning PS, MH + T80, 2% LS",32 to 64 µg/mL
same,MIC,"E. coli ATCC 25922; Escherichia coli, ATCC25922, 24 h, Corning PS, MH + T80, 50% HS",64 µg/mL
same,MIC,"E. coli ATCC 25922; Escherichia coli, ATCC25922, 24 h, Corning TC, MH + 2% LHB, 2% LS",32 to 64 µg/mL
same,MIC,"E. coli ATCC 25922; Escherichia coli, ATCC25922, 24 h, Corning TC, MH + 2% LHB, 50% HS",32 to 64 µg/mL
same,MIC,"E. coli ATCC 25922; Escherichia coli, ATCC25922, 24 h, Corning TC, MH + 2% LHB, no additive",64 µg/mL
same,MIC,"E. coli ATCC 25922; Escherichia coli, ATCC25922, 24 h, Corning TC, MH + T80, 2% LS",32 to 64 µg/mL
same,MIC,"E. coli ATCC 25922; Escherichia coli, ATCC25922, 24 h, Corning TC, MH + T80, 50% HS",64 µg/mL
same,MIC,"E. coli ATCC 25922; Escherichia coli, ATCC25922, 24 h, Trek PS, MH + 2% LHB, 2% LS",32 µg/mL
same,MIC,"E. coli ATCC 25922; Escherichia coli, ATCC25922, 24 h, Trek PS, MH + 2% LHB, 50% HS",32 µg/mL
same,MIC,"E. coli ATCC 25922; Escherichia coli, ATCC25922, 24 h, Trek PS, MH + 2% LHB, no additive",32 µg/mL
same,MIC,"E. coli ATCC 25922; Escherichia coli, ATCC25922, 24 h, Trek PS, MH + T80, 2% LS",32 µg/mL
same,MIC,"E. coli ATCC 25922; Escherichia coli, ATCC25922, 24 h, Trek PS, MH + T80, 50% HS",32 µg/mL
same,MIC,"E. coli ATCC 25922; Escherichia coli, ATCC25922, Corning NBS plate, MHB +0.002% T80, no further additive",64 µg/mL
same,MIC,"E. coli ATCC 25922; Escherichia coli, ATCC25922, Corning NBS plate, MHB −T80, no additive",64 µg/mL
same,MIC,"E. coli ATCC 25922; Escherichia coli, ATCC25922, Corning NBS, MH, 2% LS",64 µg/mL
same,MIC,"E. coli ATCC 25922; Escherichia coli, ATCC25922, Corning NBS, MH, 50% HS",64 µg/mL
same,MIC,"E. coli ATCC 25922; Escherichia coli, ATCC25922, Corning PS plate, MHB +0.002% T80, no further additive",64 µg/mL
same,MIC,"E. coli ATCC 25922; Escherichia coli, ATCC25922, Corning PS plate, MHB −T80, no additive",32 to 64 µg/mL
same,MIC,"E. coli ATCC 25922; Escherichia coli, ATCC25922, Corning PS, MH, 50% HS",64 µg/mL
same,MIC,"E. coli ATCC 25922; Escherichia coli, ATCC25922, Corning TC plate, MHB +0.002% T80, no further additive",64 µg/mL
same,MIC,"E. coli ATCC 25922; Escherichia coli, ATCC25922, Corning TC plate, MHB −T80, no additive",32 µg/mL
same,MIC,"E. coli ATCC 25922; Escherichia coli, ATCC25922, Corning TC, MH, 2% LS",64 µg/mL
same,MIC,"E. coli ATCC 25922; Escherichia coli, ATCC25922, Corning TC, MH, 50% HS",64 µg/mL
same,MIC,"E. coli ATCC 25922; Escherichia coli, ATCC25922, Nunc PS plate, MHB +0.002% T80",64 µg/mL
same,MIC,"E. coli ATCC 25922; Escherichia coli, ATCC25922, Nunc PS plate, MHB −T80",32 µg/mL
same,MIC,"E. coli ATCC 25922; Escherichia coli, ATCC25922, Nunc U TC plate, MHB +0.002% T80",64 µg/mL
same,MIC,"E. coli ATCC 25922; Escherichia coli, ATCC25922, Nunc U TC plate, MHB −T80",32 µg/mL
same,MIC,"E. coli ATCC 25922; Escherichia coli, ATCC25922, Nunc flat TC plate, MHB +0.002% T80",64 µg/mL
same,MIC,"E. coli ATCC 25922; Escherichia coli, ATCC25922, Nunc flat TC plate, MHB −T80",32 to 64 µg/mL
same,MIC,"E. coli ATCC 25922; Escherichia coli, ATCC25922, Trek PS plate, MHB +0.002% T80, no further additive",32 to 64 µg/mL
same,MIC,"E. coli ATCC 25922; Escherichia coli, ATCC25922, Trek PS plate, MHB −T80, no additive",64 µg/mL
same,MIC,"E. coli ATCC 25922; Escherichia coli, ATCC25922, Trek PS, MH, 2% LS",64 µg/mL
same,MIC,"E. coli ATCC 25922; Trek PS plate, MHB +0.002% T80, no further additive",32 to 64 µg/mL
same,MIC,"A. baumannii ATCC 19606; ATCC19606, Corning NBS, MHB +T80",> 64 µg/mL
same,MIC,"A. baumannii ATCC 19606; ATCC19606, Corning NBS, MHB -T80",> 64 µg/mL
same,MIC,"A. baumannii ATCC 19606; ATCC19606, Corning PS, MHB +T80",> 64 µg/mL
same,MIC,"A. baumannii ATCC 19606; ATCC19606, Corning PS, MHB -T80",> 64 µg/mL
same,MIC,"A. baumannii ATCC 19606; ATCC19606, Corning TC, MHB +T80",> 64 µg/mL
same,MIC,"A. baumannii ATCC 19606; ATCC19606, Corning TC, MHB -T80",> 64 µg/mL
same,MIC,"K. pneumoniae ATCC 13883; ATCC13883, Corning NBS, MHB +T80",> 64 µg/mL
same,MIC,"K. pneumoniae ATCC 13883; ATCC13883, Corning NBS, MHB -T80",> 64 µg/mL
same,MIC,"K. pneumoniae ATCC 13883; ATCC13883, Corning PS, MHB +T80",> 64 µg/mL
same,MIC,"K. pneumoniae ATCC 13883; ATCC13883, Corning PS, MHB -T80",> 64 µg/mL
same,MIC,"K. pneumoniae ATCC 13883; ATCC13883, Corning TC, MHB +T80",> 64 µg/mL
same,MIC,"K. pneumoniae ATCC 13883; ATCC13883, Corning TC, MHB -T80",> 64 µg/mL
same,MIC,"P. aeruginosa ATCC 10145; ATCC10145, Corning NBS, MHB +T80",> 64 µg/mL
same,MIC,"P. aeruginosa ATCC 10145; ATCC10145, Corning NBS, MHB -T80",> 64 µg/mL
same,MIC,"P. aeruginosa ATCC 10145; ATCC10145, Corning PS, MHB +T80",> 64 µg/mL
same,MIC,"P. aeruginosa ATCC 10145; ATCC10145, Corning PS, MHB -T80",> 64 µg/mL
same,MIC,"P. aeruginosa ATCC 10145; ATCC10145, Corning TC, MHB +T80",> 64 µg/mL
same,MIC,"P. aeruginosa ATCC 10145; ATCC10145, Corning TC, MHB -T80",> 64 µg/mL
same,MIC (literature),E. coli,16–64 ([71]) µg/ml
